In patent US7713994B2 (Wyeth LLC, priority 2005, dated 2010):

What follows are molecules tested against T1, cyclin D1/cdk 4 enzyme (Homo sapiens, UniProt P11802) (assay: CDK4 ELISA kinase assay (phospho-Rb ser 795 detection)). Conditions: In Vitro Enzyme Assay, cyclin D1/cdk 4, read-out: CDK4 IC50.
T1 construct: made in house; host or cells: Sf9 insect cells, recombinant baculovirus
Type: biochemical
Description: • 1. High-binding ELISA microtiter plates (Costar) were coated with 40 μl of the kinase substrate (GST fusion of C-terminal fragment of the retinoblastoma susceptibility gene product) diluted to 10 μg/ml in tris-buffered saline (TBS), overnight at 4° C. • 2. Non-specific binding sites were blocked for 1 hour at 4° C. with Superblock in TBS (Pierce), and the plates rinsed with water. • 3. For the screen, 1.5 μl of test compound (200 μg/ml stock in 20% DMSO/20 mM HEPES, pH 7.5) was added to each well. Final dose of the test compound in the assay was 10 ug/ml. […] The kinase reaction (30 μl) was dispensed into each well. Reactions contained 200 μM ATP, 0.5 mg/ml bovine serum albumin (BSA; Sigma), and 0.5 μl partially purified cyclin D1/cdk 4 enzyme*. The enzyme complex is expressed in insect cells (Sf9) infected with recombinant baculovirus and partially purified using ammonium sulfate fractionation. Reaction volumes were adjusted to 30 μl with kinase assay buffer (50 mM HEPES, pH 7.5, 10 mM MgCl2, 5% glycerol, 10 mM 2-mercaptoethanol). • *: For CDK2 assay, 1.0 μl cyclin E/CDK2 enzyme (diluted 1:1000 in kinase assay buffer) was used. The enzyme is isolated from insect cells (Sf9) infected with recombinant baculovirus and partially purified using ammonium sulfate fractionation. For CDK1 assay, 0.08 μl cyclin B/CDK1 enzyme [New England BioLabs; the enzyme is isolated from insect cells (Sf9) infected with recombinant baculovirus carrying human cdc 2 and human cyclin B] was used.
[…] • 5. Plates were incubated at 30° C. for 1 hour. • 6. The reaction mixture was removed by aspiration and replaced with 250 μl TBS containing 0.1% Tween-20 and 5% nonfat dry milk (blocking buffer). The plates were incubated at 4° C. for 1 hour. • 7. The blocking buffer was removed and replaced with 50 μl of the primary antibody [anti-phospho-Rb ser 795 (New England BioLabs) diluted 1:1000 in blocking buffer]. Incubation was at 4° C. for 16-20 hours. • 8. The wells were rinsed 3 times with 250 μl of TBS containing 0.1% Tween-20 followed by the addition of 50 μl of secondary antibody [anti-rabbit IgG conjugated to horseradish peroxidase (Amersham Life Science) diluted 1:1000 in blocking buffer]. • 9. After a 1 hour incubation at room temperature, the wells were rinsed 3 times with 250 μl of TBS/0.1% Tween 20. • 10. TMB (3,3′,5,5′-tetramethylbenzidine dihydrochloride) substrate solution (100 μl; Pierce) was added to each well and the color development reaction allowed to proceed 5-10 minutes at room temperature with shaking. The reaction was stopped by the addition of 2N sulfuric acid (100 μl) and the absorbance values read at 450 nm in a microplate reader (Molecular Devices). Analysis of Results: • 1. The percentage of the absorbance value in wells containing the test compound relative to control wells (no test agent) was determined. • 2. IC50 values of selected compounds were determined from inhibition curves, after subtracting background values (no substrate).

T1 sequence (P11802 whole entry, species assumed): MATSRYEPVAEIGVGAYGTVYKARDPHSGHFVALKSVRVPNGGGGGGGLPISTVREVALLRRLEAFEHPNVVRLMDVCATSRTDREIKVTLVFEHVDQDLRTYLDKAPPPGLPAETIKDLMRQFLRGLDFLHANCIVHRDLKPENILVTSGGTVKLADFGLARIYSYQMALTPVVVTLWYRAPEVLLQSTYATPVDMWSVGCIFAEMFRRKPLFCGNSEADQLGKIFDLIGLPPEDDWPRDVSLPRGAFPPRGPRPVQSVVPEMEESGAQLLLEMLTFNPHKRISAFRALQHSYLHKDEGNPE
T1 sequence (P24385 whole entry partner, species assumed): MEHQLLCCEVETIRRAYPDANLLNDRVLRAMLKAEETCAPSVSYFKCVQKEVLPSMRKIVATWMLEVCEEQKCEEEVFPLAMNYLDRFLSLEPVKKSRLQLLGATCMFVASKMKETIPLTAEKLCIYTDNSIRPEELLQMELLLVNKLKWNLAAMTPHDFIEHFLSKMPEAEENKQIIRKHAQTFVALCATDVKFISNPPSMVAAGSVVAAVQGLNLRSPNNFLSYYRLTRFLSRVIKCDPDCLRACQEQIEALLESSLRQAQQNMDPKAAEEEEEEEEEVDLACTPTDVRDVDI

IC50 | SMILES
21.5 µM | O=C1NC(=O)c2ccccc2C1=CNc1ccc(N2CCN(CC3CCC3)CC2)cc1 [Example 602, 4-{[4-(4-Cyclobutylmethyl-piperazin-1-yl)-phenylamino]-methylene}-4H-isoquinoline-1,3-dione]
25.3 µM | CCCN(CCC)Cc1ccc(NC=C2C(=O)NC(=O)c3ccccc32)cc1 [Example 614, 4-[(4-Dipropylaminomethyl-phenylamino)-methylene]-4H-isoquinoline-1,3-dione]
2.27 µM | O=C1NC(=O)c2ccc(-c3cccc(-c4ccccc4)c3)cc2C1=CNCc1ccc(O)c(O)c1 [Example 787, 6-Biphenyl-3-yl-4-[(3,4-dihydroxy-benzylamino)-methylene]-4H-isoquinoline-1,3-dione]
27.4 µM | O=C(O)CCCc1ccc(NC=C2C(=O)NC(=O)c3ccccc32)cc1 [Example 558, 4-{4-[(1,3-Dioxo-2,3-dihydro-1H-isoquinolin-4-ylidenemethyl)-amino]-phenyl}-butyric acid]
27.5 µM | N#CCc1ccc(NC=C2C(=O)NC(=O)c3ccc(-c4cccc(C#N)c4)cc32)cc1 [Example 719, 3-{4-[(4-Cyanomethyl-phenylamino)-methylene]-1,3-dioxo-1,2,3,4-tetrahydro-isoquinolin-6-yl}-benzonitrile]
11.7 µM | CN1CCN(c2ccc(NC=C3C(=O)NC(=O)c4ccc(C=Cc5ccc6ccccc6c5)cc43)cc2)CC1 [Example 674, 4-{[4-(4-Methyl-piperazin-1-yl)-phenylamino]-methylene}-6-(2-naphthalen-2-yl-vinyl)-4H-isoquinoline-1,3-dione]
13.8 µM | CN1CCN(c2ccc(NC=C3C(=O)NC(=O)c4ccc(-c5ccc(CCC(=O)O)cc5)cc43)cc2)CC1 [Example 809, 3-[4-(4-{[4-(4-Methyl-piperazin-1-yl)-phenylamino]-methylene}-1,3-dioxo-1,2,3,4-tetrahydro-isoquinolin-6-yl)-phenyl]-propionic acid]
48.6 µM | CN1CCN(c2ccc(NC=C3C(=O)NC(=O)c4ccc(-c5cccc(-c6ccccc6)c5)cc43)cc2)CC1 [Example 697, 6-Biphenyl-3-yl-4-{[4-(4-methyl-piperazin-1-yl)-phenylamino]-methylene}-4H-isoquinoline-1,3-dione]
22.3 µM | CN1CCN(c2ccc(NC=C3C(=O)NC(=O)c4ccc(-c5ccc(Cl)cc5Cl)cc43)cc2)CC1 [Example 811, 6-(2,4-Dichloro-phenyl)-4-{[4-(4-methyl-piperazin-1-yl)-phenylamino]-methylene}-4H-isoquinoline-1,3-dione]
2.2 µM | NS(=O)(=O)c1ccc(CNC=C2C(=O)NC(=O)c3ccc(C=CCn4ccnc4)cc32)cc1 [Example 657, 4-({[6-(3-Imidazol-1-yl-propenyl)-1,3-dioxo-2,3-dihydro-1H-isoquinolin-4-ylidenemethyl]-amino}-methyl)-benzenesulfonamide]
32.9 µM | COc1ccccc1-c1ccc2c(c1)C(=CNc1ccc(N3CCN(C)CC3)cc1)C(=O)NC2=O [Example 683, 6-(2-Methoxy-phenyl)-4-{[4-(4-methyl-piperazin-1-yl)-phenylamino]-methylene}-4H-isoquinoline-1,3-dione]
42.7 µM | CCN(CC)CCNC(=O)c1ccc(NC=C2C(=O)NC(=O)c3ccccc32)cc1 [Example 543, N-(2-Diethylamino-ethyl)-4-[(1,3-dioxo-2,3-dihydro-1H-isoquinolin-4-ylidenemethyl)-amino]-benzamide]
11.3 µM | NS(=O)(=O)c1ccc(CNC=C2C(=O)NC(=O)c3ccc(-c4ccc(C(F)(F)F)cc4)cc32)cc1 [Example 743, 4-({[1,3-Dioxo-6-(4-trifluoromethyl-phenyl)-2,3-dihydro-1H-isoquinolin-4-ylidenemethyl]-amino}-methyl)-benzenesulfonamide]
23.5 µM | CNc1ccc(CN/C=C2\C(=O)NC(=O)c3ccccc32)cc1 [Example 604, 4-[(4-Methylamino-benzylamino)-methylene]-4H-isoquinoline-1,3-dione]
4.97 µM | CN1CCN(c2ccc(NC=C3C(=O)NC(=O)c4ccc(C=Cc5ccc(CC#N)cc5)cc43)cc2)CC1 [Example 803, {4-[2-(4-{[4-(4-Methyl-piperazin-1-yl)-phenylamino]-methylene}-1,3-dioxo-1,2,3,4-tetrahydro-isoquinolin-6-yl)-vinyl]-phenyl}-acetonitrile]
21.9 µM | O=C1NC(=O)c2ccc(-c3cccc4ccccc34)cc2C1=CNCc1ccc(O)c(O)c1 [Example 640, 4-[(3,4-Dihydroxy-benzylamino)-methylene]-6-naphthalen-1-yl-4H-isoquinoline-1,3-dione]
25.9 µM | N#CCc1ccc(NC=C2C(=O)NC(=O)c3ccc(-c4cccc(-c5ccccc5)c4)cc32)cc1 [Example 721, {4-[(6-Biphenyl-3-yl-1,3-dioxo-2,3-dihydro-1H-isoquinolin-4-ylidenemethyl)-amino]-phenyl}-acetonitrile]
37.1 µM | O=C1NC(=O)c2ccccc2C1=CNc1ccccc1OC(F)(F)F [Example 541, 4-[(2-Trifluoromethoxy-phenylamino)-methylene]-4H-isoquinoline-1,3-dione]
1.96 µM | CSc1ccccc1-c1ccc2c(c1)C(=CNCc1ccc(O)c(O)c1)C(=O)NC2=O [Example 793, 4-[(3,4-Dihydroxy-benzylamino)-methylene]-6-(2-methylsulfanyl-phenyl)-4H-isoquinoline-1,3-dione]
39.7 µM | CCN(CC)CCN1CCN(c2ccc(NC=C3C(=O)NC(=O)c4ccccc43)cc2)CC1 [Example 599, 4-({4-[4-(2-Diethylamino-ethyl)-piperazin-1-yl]-phenylamino}-methylene)-4H-isoquinoline-1,3-dione]
18.5 µM | COc1ccccc1-c1ccc2c(c1)C(=CNc1ccc(CC#N)cc1)C(=O)NC2=O [Example 703, (4-{[6-(2-Methoxy-phenyl)-1,3-dioxo-2,3-dihydro-1H-isoquinolin-4-ylidenemethyl]-amino}-phenyl)-acetonitrile]
29.7 µM | O=C1NC(=O)c2ccccc2C1=CNC(Cc1ccc(O)c(O)c1)C(=O)O (centres unmarked) [Example 566, 3-(3,4-Dihydroxy-phenyl)-2-[(1,3-dioxo-2,3-dihydro-1H-isoquinolin-4-ylidenemethyl)-amino]-propionic acid]
36 µM | CC(=O)N(C)c1ccc(NC=C2C(=O)NC(=O)c3ccccc32)cc1 [Example 554, N-{4-[(1,3-Dioxo-2,3-dihydro-1H-isoquinolin-4-ylidenemethyl)-amino]-phenyl}-N-methyl-acetamide]
24.2 µM | CN1CCN(c2ccc(NC=C3C(=O)NC(=O)c4ccc(C=CCCC(=O)O)cc43)cc2)CC1 [Example 795, 5-(4-{[4-(4-Methyl-piperazin-1-yl)-phenylamino]-methylene}-1,3-dioxo-1,2,3,4-tetrahydro-isoquinolin-6-yl)-pent-4-enoic acid]
42.5 µM | CC(=O)Nc1cccc(CNC=C2C(=O)NC(=O)c3ccccc32)c1 [Example 585, N-(3-{[(1,3-Dioxo-2,3-dihydro-1H-isoquinolin-4-ylidenemethyl)-amino]-methyl)-phenyl)-acetamide]
20.9 µM | COc1cccc(-c2ccc3c(c2)C(=CNc2ccc(CC#N)cc2)C(=O)NC3=O)c1 [Example 702, (4-{[6-(3-Methoxy-phenyl)-1,3-dioxo-2,3-dihydro-1H-isoquinolin-4-ylidenemethyl]-amino}-phenyl)-acetonitrile]
